Results reported in article PMC11487561 (ACS Chemical Neuroscience, 2024).
Read-outs that look alike come from different tables or passages of the source.

Key:
human M4 (hM4) = biological target: T1, human M4 (hM4) (Homo sapiens, UniProt P08173); experiment: Calcium mobilization assay, hM4/Gqi5-CHO cells, EC20 acetylcholine (PAM); format: cell-based; conditions: for fold increase in hM4 potency (EC50) vs comparator analogue: 14h vs 14c, 22g vs 14j, 22j vs 14k, 22k vs 14g, 22f vs 14e; for Emax / EC50 / hM4 pEC50: calcium mobilization, hM4/Gqi5-CHO cells, EC20 acetylcholine; for Emax: read-out: hM4 %ACh Max
T1 construct: expressed in transfected cells
T1 sequence (P08173 1-479): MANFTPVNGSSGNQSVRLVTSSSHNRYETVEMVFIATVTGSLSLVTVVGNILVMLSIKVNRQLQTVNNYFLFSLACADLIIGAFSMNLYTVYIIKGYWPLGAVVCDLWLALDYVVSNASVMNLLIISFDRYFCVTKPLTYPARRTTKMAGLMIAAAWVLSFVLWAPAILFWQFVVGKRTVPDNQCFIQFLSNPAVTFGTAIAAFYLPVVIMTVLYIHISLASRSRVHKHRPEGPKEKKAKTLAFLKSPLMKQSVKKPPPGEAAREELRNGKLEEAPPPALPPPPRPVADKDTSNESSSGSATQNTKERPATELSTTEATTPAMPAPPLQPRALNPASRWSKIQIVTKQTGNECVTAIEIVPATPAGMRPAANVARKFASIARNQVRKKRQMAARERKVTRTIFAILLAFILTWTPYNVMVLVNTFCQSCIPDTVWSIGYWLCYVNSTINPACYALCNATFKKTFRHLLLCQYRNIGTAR

[1] = Intrinsic clearance in rat liver microsomes; format: in vitro ADME; conditions: pH 7.4; rat liver microsomes
Protocol: (§1) Intrinsic Clearance in Rat and Human Liver Microsomes
(§2) The in vitro intrinsic clearance (CL int) was investigated in commercially obtained hepatic microsomes from rat and human donors using the substrate depletion (i.e., loss-of-parent vs. time, or t 1/2 method) approach with analyte detection via liquid chromatography-tandem mass spectrometry (LC-MS/MS). For each species, mean %parent remaining values at each time point were calculated from replicates raw data (analyte:IS peak area ratios) and used to determine in vitro t 1/2 and CLint.
(§3) Experiments were carried out using a robot-assisted (TECAN model Evo 200). Compound was incubated (1 µM final concentration) in buffer (100 mM potassium phosphate pH 7.4 with 3 mM MgCl2) containing hepatic microsomes (0.5 mg/mL final concentration) from multiple species, discretely, at 37 °C under constant orbital shaking. After 5 minutes (pre-incubation), reactions were initiated by addition of nicotinamide adenine dinucleotide phosphate (NADPH, 1 mM final concentration). At selected time intervals (0, 3, 7, 15, 25, and 45 minutes) post-addition of NADPH, aliquots (50 µL) were taken and placed into a 96-shallow-well plate containing ice cold acetonitrile (150 µL) with carbamazepine (IS, 50 nM). The plates were then centrifuged (3000 rcf at 4 °C) for 10 minutes. The supernatants were transferred to a new 96-shallow-well daughter plate and diluted (1:1 v/v) with water (Milli-Q filtered). The plates were then sealed in preparation for LC-MS/MS analysis (see below).
(§4) Raw LC-MS/MS peak area data generated from the assay samples were used to construct natural log-transformed %parent remaining vs. time plots (using t = 0 minute post-NADPH addition sample data as starting point set to 100%). In vitro compound half-life (t 1/2) values were obtained using the following […]
(§5) k is the slope from linear regression analysis of the natural log-transformed data (using means from Where all replicates at each time point). Resulting t 1/2 values were then used to calculate hepatic CLint values according to the following equation and with the use of species-specific scale-up factors for liver weight (grams) per total body weight (kg): […]
(§6) CLint = in vitro t1/2 x 0.5 mg microsomes x 1 gram liver x kg body wt aScale-up factors used are 45 (rat) and 20 (human).2
(§7) Predicted hepatic clearance (CLhep) was calculated using the following equation: […]
(§8) Qh represents hepatic blood flow (mL/min/kg): 21 for human, 70 for rat, and 90 for mouse.
(§9) Prepared samples were injected (10 µL each) onto an AB Sciex Triple Quad 4500 mass spectrometer system with an Agilent 1260 Infinity II pump and autosampler. Mass spectrometer conditions are described in Table S1. Quantitation of compounds was performed via AB Sciex Multiquant software using the raw analyte:IS peak area ratios. The typical detection range was 0.5 ng/mL to ≥ 5,000 ng/mL utilizing a quadratic equation regression with 1/x2 weighting. […]
(§10) Table S1. LC-MS/MS Conditions*
(§11) Mobile phase A 0.5% Formic Acid in Water
(§12) Mobile phase B 0.5% Formic Acid in Acetonitrile
(§13) Gradient Time % Mobile Phase B

[2] = Intrinsic clearance in human liver microsomes; format: in vitro ADME; conditions: pH 7.4; human liver microsomes
Protocol: as §1, §2, §3, §4, §5, §6, §7, §8, §9, §10, §11, §12, §13

[3] = Binding in plasma from rat (equilibrium dialysis); format: in vitro ADME; conditions: read-out: rat fu,plasma
Protocol: (§14) Binding in plasma from rat and human.
(§15) Determination of compounds’ fraction unbound (f u) in plasma from rat and human was conducted in vitro via equilibrium dialysis using HTDialysis membrane plates. Dialysis membranes (four paired strips per HTD assay) were hydrated as described by the manufacturer and inserted into the HTD plate, which was assembled and prepared for sample addition by the dispensing of blank buffer (DPBS, 100 µL/well) into the ‘top half’ of each membrane-split well. Each compound was diluted into plasma from each species (5 µM final concentration), which was aliquoted in triplicate to the ‘bottom half’ of the prepared HTD plate wells. The HTD plate was sealed and incubated for 6 hours at 37 °C. Following incubation, each well (both top and bottom halves) were transferred (20 µL) to the corresponding wells of a 96-shallow-well (V-bottom) plate. The daughter plates were then matrix-matched (buffer side wells received equal volume of plasma, and plasma side wells received equal volume of buffer), and extraction solution (120 µL; acetonitrile containing 50 nM carbamazepine as IS) was added to all wells of both daughter plates to precipitate protein and extract test article. The plates were then sealed and centrifuged (3500 rcf) for 10 minutes at ambient temperature. Supernatant (60 µL) from each well of the daughter plates was then transferred to the corresponding wells of new daughter plates (96-shallow-well, V bottom) containing water (Milli-Q, 60 µL/well), and the plates were sealed in preparation for LC-MS/MS analysis (see below). fu was calculated as (analyte to IS MS peak area ratio from Trans-buffer side) / (analyte to IS MS peak area ratio from Cis-plasma side). Mean values for each species were calculated from 3 replicates.

[4] = Binding in plasma from human (equilibrium dialysis); format: in vitro ADME; conditions: for fraction unbound at 6 h, 5 µM: human, plasma, read-out: human fu,plasma
Protocol: as §14, §15

[5] = Binding in brain homogenate from rat (equilibrium dialysis); format: in vitro ADME; conditions: for rat fbrain: fraction unbound, equilibrium dialysis, rat brain homogenates; for fraction unbound at 6 h, 1 µM: rat, brain homogenate, in %, read-out: fu,brain (rat brain homogenate)
Protocol: Binding in brain homogenate from rat.
Determination of fraction unbound (f u) in brain homogenate from rat was conducted using the same methodology and procedure than described for plasma protein binding assay with the following modifications: 1) a final compound concentration of 1 μM was used, 2) naïve rat brains were homogenized in DPBS (1:3 composition of brain: DPBS, w/w) using a Mini-Bead Beater™ machine in order to obtain […]
The diluted fraction unbound (f u2) in brain was calculated as (analyte to IS MS peak area ratio from Trans-buffer side) / (analyte to IS MS peak area ratio from Cis-brain homogenate side). Undiluted fraction unbound for the brain was calculated using the following equation: […]
Mean values for each species were calculated from 3 replicates. […]

[6] = Rat plasma-to-brain level (PBL) cassette, brain distribution; format: in vivo; conditions: 0.2 mg/kg, SD rat, 0.2 mg/kg IV; for Kp at 0.25 h / Kp uu at 0.25 h: male, Sprague-Dawley, rat, brain / plasma, iv
[7] = parameters: method as in PMID 31787491, PMID 34710625; conditions: previously reported tricycles, Figure 2; cited from earlier work
[8] = parameters: method as in PMID 31787491, PMID 34710625; conditions: previously reported tricycles, Figure 2; cited from earlier work; remark: listed apart in the source
[9] = system: amphetamine-induced hyperlocomotion in rats; experiment: Rat amphetamine-induced hyperlocomotion (AHL); format: in vivo; conditions: 10 mg/kg p.o. + amphetamine 0.75 mg/kg s.c.
Protocol: Rat Amphetamine-Induced Hyperlocomotion (AHL) Protocol
Male Harlan Sprague Dawley rats with a mean body weight of 240 g (range 221-264 g) were tested in SmartFrame Open Field locomotor activity test chambers to automatically record locomotor activity. All rats were habituated in locomotor activity enclosures for 30 min, followed by pretreatment by oral gavage for an additional 30 min with either vehicle or a dose of VU6016235 or the comparator M 4 PAM VU0467154. Next, rats were injected subcutaneously with vehicle or a dose of 0.75 mg/kg amphetamine and then monitored for an additional 60 min. Changes in locomotor activity were recorded for a total of 120 min. Locomotor data were expressed as the number of photobeam breaks/5 min intervals across the 120-min test session or as the total ambulation, calculated as sum of photobeam beam breaks from the time of amphetamine administration (60 min) until the end of the study (120 min). Time course data were analyzed by two-way ANOVA with main effects of treatment and time; changes in total ambulation were analyzed by one-way ANOVA followed by Dunnett’s post hoc test (GraphPad Prism 7 [GraphPad Software, San Diego, CA]). For all tests, α ≤ 0.05 was considered to represent statistical significance.
Finally, percent reversal data were calculated in Microsoft Excel using the following formula: Percent Reversal = 100 - {[(total ambulation in individual animal from t = 60 to t = 120) / (mean total ambulation […]
from t=60 to t=120 in the VAMP group)] * 100}. Mean percent reversal ± S.E.M. was calculated for each dose group using GraphPad Prism 7.
At the end of this behavioral study, each rat was euthanized, then decapitated, and the plasma and brain tissues were collected for the evaluation of exposure levels of VU6016235-05 or VU0467154-9A by pharmacokinetic analysis. […]

[10] = read-out: hM4 pEC50 (converted)
[11] = fraction unbound, equilibrium dialysis
[12] = total brain to total plasma ratio
[13] = unbound brain to unbound plasma ratio

fold increase in hM4 potency (EC50) vs comparator analogue (human M4 (hM4)) [fold] | Emax (human M4 (hM4)) [%] | EC50 (human M4 (hM4); read-out: hM4 EC50) [nM] | EC50 (human M4 (hM4); [10]) [nM] | CLint scaled at 1 µM [1] [mL/min/kg] | CLint scaled at 1 µM [2] [mL/min/kg] | fraction unbound at 6 h, 5 µM [3, 11] | fraction unbound at 6 h, 5 µM [4, 11] | rat fbrain [5] | fraction unbound at 6 h, 1 µM [5] | Kp at 0.25 h [6, 12] | Kp uu at 0.25 h [6, 13] | Compound | other results
7 | 94 | 170 | 166 | 386 | 50 | 0.014 | 0.009 | 0.009 | < 0.01 | 1.69 | 1.01 | COc1ccc(CNc2nccc3c2sc2nc(C)nc(C)c23)cc1F [22j] | –
19 | 97 | < 190 | 33.1 | 1520 | 148 | 0.043 | 0.01 | 0.015 | 0.012 to 0.033 | 8.33 | 2.91 | Cc1nc(C)c2c(n1)sc1c(N3CCC(F)(F)C3)nccc12 [22f] | –
– | 76 | 160 | – | 1050 | 177 | 0.048 | 0.013 | 0.012 | 0.01 to 0.05 | > 5 | > 1 | Cc1nc(C)c2c(n1)sc1c(N3CC4CC4C3)ncnc12 (centres unmarked) [14i] | hM4 pEC50 (human M4 (hM4)): 6.81; fraction unbound at 6 h, 5 µM ([3]; in %): > 0.05; fraction unbound at 6 h, 5 µM ([4]; in %): 0.01 to 0.05; Kp, brain:plasma ([6]; 0.25 h, total brain to total plasma ratio): 7.27; Kp,uu, brain:plasma ([6]; 0.25 h, unbound brain to unbound plasma ratio): 1.82
– | – | – | – | – | – | – | – | – | – | – | – | COc1cc(N2CC(Nc3ncnc4c3ccc3nn(C)c(C)c34)C2)c(Cl)cn1 [VU6017649] | rat CLhep [7]: 44 mL/min/kg; Kp [8]: 1.55; Kp,uu [8]: 3.88
– | 58 | < 190 | 74.1 | 3440 | 134 | 0.019 | 0.007 | 0.004 | < 0.01 | 7.77 | 1.64 | Cc1nc(C)c2c(n1)sc1c(N3CCCCC3)nccc12 [22e] | fraction unbound at 6 h, 5 µM ([4]; in %): < 0.01; human fu,plasma ([4]; in %): highly bound
– | – | – | – | – | – | – | – | – | – | – | – | Cc1cc(C)c2c(n1)sc1c(N3CC4(COC4)C3)ncnc12 [VU6007215] | rat CLhep [7]: 63 mL/min/kg; Kp [8]: 4.47; Kp,uu [8]: 0.40
4 | 77 | < 190 | – | 3060 | 124 | 0.038 | 0.023 | 0.007 | < 0.01 | 18.6 | 3.43 | Cc1nc(C)c2c(n1)sc1c(N3CCCC3)nccc12 [22k] | hM4 pEC50 (human M4 (hM4)): 7.14
– | – | – | – | – | – | – | – | – | – | – | – | Cc1nnc2sc(C(=O)NCc3ccc(S(=O)(=O)C(F)(F)F)cc3)c(N)c2c1C [VU0467154, reference compound] | mean reversal of AHL [9]: 35.4 ± 4.2%
